Consider eight molecules from patent publication US12233089B2, “Foods to promote better health and/or to maintain homeostasis and method of production thereof” (Vector Vitale IP LLC, priority 2021, dated 2025).

Structures can show the parent of a compound that is named as a salt. Marks after values point to notes of the source that are not given here. A value given as a limit tells only on which side of the number the result lay.

In series [1] the test system is S. aureus ATCC 25923. Nature of the series: Minimum bactericidal concentration (MBC), S. aureus. Format: cell-based. The protocol:
(§1) To evaluate the bactericidal action of the antibacterial composition based on light isotope ^64Zne the minimum bactericidal concentration (MBC) was determined by plating out 0.1 ml of the contents of each tube containing the antibacterial composition on Mueller-Hinton medium. The incubation was at 37° C. for 24 h.
(§2) The MBC of the test samples was determined as the lowest concentration at which there was no growth on Mueller-Hinton agar medium.
(§3) The conditions of the experiment were like those for Zn-64 compound.

Series [2] concerns E. coli ATCC 25922. Nature of the series: Minimum bactericidal concentration (MBC), E. coli. Format: cell-based. The protocol:
as §1, §2, §3

Series [3] deals with P. aeruginosa ATCC 27853. As to the kind of experiment: Minimum bactericidal concentration (MBC), P. aeruginosa. The class given is cell-based. The protocol: as §1, §2, §3
In series [4] the test system is S. aureus ATCC 25923. As to the kind of experiment: MIC (bacteriostatic activity), S. aureus. Format: cell-based. The settings on record: Table 5.
From the text: as §3

For series [5], the system named is E. coli ATCC 25922. As to the kind of experiment: MIC (bacteriostatic activity), E. coli. The settings on record: Table 5. The class given is cell-based.
From the text: as §3

The subject of series [6] is P. aeruginosa ATCC 27853. Nature of the series: MIC (bacteriostatic activity), P. aeruginosa. The settings on record: for MIC: Table 5. The class given is cell-based.
From the text: as §3

The next series deals with influenza virus. As to the kind of experiment: In vitro reproduction of influenza virus. Format: cell-based.
The subject of another series is herpes virus. Format: cell-based. The settings on record: in vitro.
For series [7], the system named is BVDV—bovine viral diarrhea virus. The class given is cell-based. The settings on record: in vitro.
The next series relates to RNA and DNA synthesis. As to the kind of experiment: Inhibition of RNA and DNA synthesis. The class given is cell-based.

Take `O=S(=O)([O-])[O-].[Zn+2]` [Natural zinc - sulfate, reference compound]: the MBC against S. aureus ATCC 25923 [1] (Table 6), against E. coli ATCC 25922 [2] (Table 6) and in the series with P. aeruginosa ATCC 27853 [3] (Table 6) was above 750 mcg zinc/ml in each case. The MIC was 93.75 zinc mcg/ml with S. aureus ATCC 25923 [4], 187.5 zinc mcg/ml in the series on E. coli ATCC 25922 [5] and 750 zinc mcg/ml against P. aeruginosa ATCC 27853 [6].

As for `N[C@@H](CCC(=O)[O-])C(=O)[O-].[Zn+2]` [Zinc glutamate, reference compound], the “reproduction of influenza virus” value with influenza virus is listed as “effectively inhibited”. The “reproduction of herpes virus” value with herpes virus was “effectively inhibited”. The “reproduction of surrogate model of HCV (BVDV) virus” value in [7] is on record as “effectively inhibited”.

Regarding `O=C(O)CC(O)(CC(=O)O)C(=O)O` [^64Zne citrate], in the series on RNA and DNA synthesis, the “RNA and DNA synthesis” value is given as “Inhibition”. For the same molecule, the “assessment of cytotoxicity and antiviral activity for anti-EBV infection” value in the series with Epstein-Barr virus is listed as “most promising”.

With `NC(CCC(=O)[O-])C(=O)[O-].[64Zn+2]` (stereo not drawn) [^64Zne glutamate], the “RNA and DNA synthesis” value with RNA and DNA synthesis is “Inhibition”. In addition, the MBC against S. aureus ATCC 25923 [1] (37° C. 24 h, Table 4) is recorded as 0.046* mcg ^64Zne/ml; against E. coli ATCC 25922 [2] (37° C. 24 h, Table 4), 0.37* mcg ^64Zne/ml; against P. aeruginosa ATCC 27853 [3] (37° C. 24 h, Table 4), above 750 mcg ^64Zne/ml. Besides, the “bacteriostatic activity (in words)” value with P. aeruginosa ATCC 27853 [6] is “best results”.

Take `O=S(=O)([O-])[O-].[64Zn+2]` [^64Zne sulfate]: the MBC with S. aureus ATCC 25923 [1] (37° C. 24 h, Table 4) is reported as 0.37* mcg ^64Zne/ml; against S. aureus ATCC 25923 [1] (Table 6) it was 0.3662 mcg zinc/ml; in the series on E. coli ATCC 25922 [2] (37° C. 24 h, Table 4) it was 1.46* mcg ^64Zne/ml; in the series with E. coli ATCC 25922 [2] (Table 6), 1.4648 mcg zinc/ml; in the series on P. aeruginosa ATCC 27853 [3] (37° C. 24 h, Table 4) it was 375 mcg ^64Zne/ml; in the series on P. aeruginosa ATCC 27853 [3] (Table 6), 375 mcg zinc/ml. The MIC in the series on S. aureus ATCC 25923 [4] came out at 0.366 zinc mcg/ml; in the series with E. coli ATCC 25922 [5], 0.0916 zinc mcg/ml; against P. aeruginosa ATCC 27853 [6], 46.875 zinc mcg/ml.

For the molecule `NC(CCC(=O)[O-])C(=O)[O-].[64Zn+2]` (stereo not drawn) [zinc-64 light isotope glutamate], the “reproduction of influenza virus” value in the series on influenza virus is listed as “effectively inhibited”. Also, the “reproduction of herpes virus” value with herpes virus is “effectively inhibited”. In series [7], the “reproduction of surrogate model of HCV (BVDV) virus” value is reported as “effectively inhibited”.

In the case of Zn64 EDDA, the “bacteriostatic activity (in words)” value with P. aeruginosa ATCC 27853 [6] is listed as “best results”. Also, the “assessment of cytotoxicity and antiviral activity for anti-EBV infection” value with Epstein-Barr virus was “most promising”.

For the molecule ^64Zne EDDS, the MBC against S. aureus ATCC 25923 [1] (37° C. 24 h, Table 4) is 0.73* mcg ^64Zne/ml; against S. aureus ATCC 25923 [1] (Table 6) it was 0.7324 mcg zinc/ml; against E. coli ATCC 25922 [2] (37° C. 24 h, Table 4), 2.93* mcg ^64Zne/ml; in the series with E. coli ATCC 25922 [2] (Table 6), 2.9296 mcg zinc/ml; in the series with P. aeruginosa ATCC 27853 [3] (37° C. 24 h, Table 4) it was 375 mcg ^64Zne/ml; in the series on P. aeruginosa ATCC 27853 [3] (Table 6), 375 mcg zinc/ml. For the same molecule, the MIC in the series on S. aureus ATCC 25923 [4] amounted to 0.73 zinc mcg/ml; against E. coli ATCC 25922 [5], 0.18 zinc mcg/ml; in the series on P. aeruginosa ATCC 27853 [6], 5.86 zinc mcg/ml.
